Source: patent US8058475B2, “Substituted cyclohexylmethyl compounds” (Gruenenthal GmbH, priority 2005, dated 2011)
Like-named read-outs stand apart in the source and are kept apart here.

Target: human μ-opiate receptor (Homo sapiens, UniProt P35372)
Assay: Affinity for the human μ-opiate receptor ([3H]-naloxone displacement, SPA, CHO-K1 membrane preparation)
Assay type: binding
Details: for Ki: read-out: μ-Opioid receptor, Ki; for inhibition at 1 µM: read-out: μ-Opioid receptor, % inhibition [1 μM]
[1] = 1 μM test substance, inhibition of specific [3H]-naloxone binding

Chain of human μ-opiate receptor (P35372 whole entry): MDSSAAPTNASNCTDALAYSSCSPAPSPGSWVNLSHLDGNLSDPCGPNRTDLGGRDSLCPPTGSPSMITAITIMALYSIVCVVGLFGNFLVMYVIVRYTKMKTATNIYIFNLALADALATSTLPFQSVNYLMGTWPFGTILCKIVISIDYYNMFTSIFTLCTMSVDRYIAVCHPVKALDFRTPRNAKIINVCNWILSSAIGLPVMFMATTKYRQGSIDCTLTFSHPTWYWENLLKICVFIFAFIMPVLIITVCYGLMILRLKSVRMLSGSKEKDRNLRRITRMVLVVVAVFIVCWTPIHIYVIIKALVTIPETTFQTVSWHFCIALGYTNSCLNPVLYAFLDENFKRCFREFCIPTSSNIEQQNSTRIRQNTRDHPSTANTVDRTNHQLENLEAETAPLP

Row | Structure (SMILES) | μ-Opioid receptor, % inhibition [1 μM] (1 µM) | Ki | Ki (acylated amines (Table 20)) | inhibition at 1 µM | inhibition at 1 µM [1]
1 | Cc1ccccc1C(=O)NCCC1CCC(C(c2ccccc2)N(C)C)CC1 (single isomer, unassigned) [compound 418, N-{2-[4-(dimethylamino-phenyl-methyl)-cyclohexyl]-ethyl}-2-methyl-benzamide] | 92% | 43 nM |  |  | 
2 | CN(C)C(c1ccccc1)C1CCC(CNC(=O)c2cc([N+](=O)[O-])cc([N+](=O)[O-])c2)CC1 (stereo not drawn) [compound 392, N-[4-(dimethylamino-phenyl-methyl)-cyclohexylmethyl]-3,5-dinitro-benzamide] |  |  | 180 nM | 80% | 
3 | Cc1nc(-c2ccccc2)sc1C(=O)NC1CCC(C(c2cccc(F)c2)N(C)C)CC1 (stereo not drawn) [compound 256, 4-methyl-2-phenyl-thiazole-5-carboxylic acid {4-[dimethylamino-(3-fluoro-phenyl)-methyl]-cyclohexyl}-amide] |  | 80 nM |  | 80% | 
4 | CC(Oc1ccccc1)C(=O)NCC1CCC(C(c2cccc(F)c2)N(C)C)CC1 (stereo not drawn) [compound 346, N-{4-[dimethylamino-(3-fluoro-phenyl)-methyl]-cyclohexylmethyl}-2-phenoxy-propionamide] |  | 65 nM |  | 90% | 
5 | COc1ccccc1C(=O)NCCC1CCC(C(c2cccc(F)c2)N(C)C)CC1 (stereo not drawn) [compound 415, N-(2-{4-[dimethylamino-(3-fluoro-phenyl)-methyl]-cyclohexyl}-ethyl)-2-methoxy-benzamide] |  | 5.1 nM |  | 99% | 
6 | CN(C)C(c1cccs1)C1CCC(CCNC(=O)c2csc3ccccc23)CC1 (stereo not drawn) [compound 465, benzo[b]thiophene-3-carboxylic acid {2-[4-(dimethylamino-thiophen-2-yl-methyl)-cyclohexyl]-ethyl}-amide] |  | 3.1 nM |  | 99% | 
7 | COc1ccc(C(=O)NCCC2CCC(C(c3ccccc3)N(C)C)CC2)c(OC)c1 (stereo not drawn) [compound 478, N-{2-[4-(dimethylamino-phenyl-methyl)-cyclohexyl]-ethyl}-2,4-dimethoxy-benzamide] |  | 27 nM |  | 95% | 
8 | CN(C)C(c1cccc(F)c1)C1CCC(O)(CCc2ccccc2)CC1 (stereo not drawn) [compound 153, 4-[dimethylamino-(3-fluoro-phenyl)-methyl]-1-phenethyl-cyclohexanol] |  |  |  |  | 87%
9 | CN(C)C(c1ccccc1)C1CCC(CNC(=O)Cc2ccc(Cl)cc2)CC1 (stereo not drawn) [compound 324, 2-(4-chloro-phenyl)-N-[4-(dimethylamino-phenyl-methyl)-cyclohexylmethyl]-acetamide] |  | 22 nM |  | 95% | 
10 | CN(C)C(c1cccs1)C1CCC(CNC(=O)Cc2cccs2)CC1 (stereo not drawn) [compound 291, N-[4-(dimethylamino-thiophen-2-yl-methyl)-cyclohexylmethyl]-2-thiophen-2-yl-acetamide] |  |  |  | 102% | 
11 | CC(Oc1ccccc1)C(=O)NCC1CCC(C(c2cccc(F)c2)N(C)C)CC1 (single isomer, unassigned) [compound 332, N-{4-[dimethylamino-(3-fluoro-phenyl)-methyl]-cyclohexylmethyl}-2-phenoxy-propionamide] |  | 20 nM |  | 93% | 
12 | CN(C)C(c1ccccc1)C1CCC(CNC(=O)c2cccc(Cl)c2)CC1 (stereo not drawn) [compound 331, 3-chloro-N-[4-(dimethylamino-phenyl-methyl)-cyclohexylmethyl]-benzamide] |  | 11 nM |  | 93% | 
13 | CN(C)C(c1ccccc1)C1CCC(NC(=O)c2scc(S(C)(=O)=O)c2Cl)CC1 (stereo not drawn) [compound 252, 3-chloro-4-methanesulfonyl-thiophene-2-carboxylic acid [4-(dimethylamino-phenyl-methyl)-cyclohexyl]-amide] |  | 20 nM |  | 81% | 
14 | CN(C)C(c1ccc(Cl)cc1)C1CCC(CCNC(=O)c2cccnc2Cl)CC1 (stereo not drawn) [compound 441, 2-chloro-N-(2-{4-[(4-chloro-phenyl)-dimethylamino-methyl]-cyclohexyl}-ethyl)-nicotinamide] |  | 200 nM |  | 83% | 
15 | CCCCC1(O)CCC(C(c2ccc(Cl)cc2)N(C)C)CC1 (stereo not drawn) [compound 167, 1-butyl-4-[(4-chloro-phenyl)-dimethylamino-methyl]-cyclohexanol] |  |  |  |  | 58%
16 | CN(C)C(c1ccccc1)C1CCC(CCNC(=O)c2ccc(Cl)c(Cl)c2)CC1 (stereo not drawn) [compound 416, 3,4-dichloro-N-{2-[4-(dimethylamino-phenyl-methyl)-cyclohexyl]-ethyl}-benzamide] |  | 19 nM |  | 86% | 
17 | CN(C)C(c1ccccc1)C1CCC(NC(=O)c2ccc(Cl)c(Cl)c2)CC1 (stereo not drawn) [compound 189, 3,4-dichloro-N-[4-(dimethylamino-phenyl-methyl)-cyclohexyl]-benzamide] |  | 11 nM |  | 99% | 
18 | CN(C)C(c1ccc(Cl)cc1)C1CCC(CCNC(=O)c2cc(F)c(Cl)cc2Cl)CC1 (stereo not drawn) [compound 437, 2,4-dichloro-N-(2-{4-[(4-chloro-phenyl)-dimethylamino-methyl]-cyclohexyl}-ethyl)-5-fluoro-benzamide] |  | 100 nM |  | 80% | 

Row | Structure (SMILES) | μ-Opioid receptor, % inhibition [1 μM] (1 µM) | Ki | Ki (acylated amines (Table 20)) | inhibition at 1 µM | inhibition at 1 µM [1]
19 | CCn1nc(C)c(Br)c1C(=O)NCC1CCC(C(c2cccs2)N(C)C)CC1 (stereo not drawn) [compound 375, 4-bromo-2-ethyl-5-methyl-2H-pyrazole-3-carboxylic acid [4-(dimethylamino-thiophen-2-yl-methyl)-cyclohexylmethyl]-amide] |  |  |  | 84% | 
20 | Cc1oc(-c2ccc(Cl)cc2)cc1C(=O)NC1CCC(C(c2ccccc2)N(C)C)CC1 (stereo not drawn) [compound 232, 5-(4-chloro-phenyl)-2-methyl-furan-3-carboxylic acid [4-(dimethylamino-phenyl-methyl)-cyclohexyl]-amide] |  | 74 nM |  | 84% | 
21 | Cc1ccc(Oc2ncccc2C(=O)NCC2CCC(C(c3cccs3)N(C)C)CC2)cc1 (single isomer, unassigned) [compound 389, N-[4-(dimethylamino-thiophen-2-yl-methyl)-cyclohexylmethyl]-2-p-tolyloxy-nicotinamide] |  | 58 nM |  | 81% | 
22 | CN(C)C(c1cccc(F)c1)C1CCC(NC(=O)c2c(F)cccc2F)CC1 (stereo not drawn) [compound 278, N-{4-[dimethylamino-(3-fluoro-phenyl)-methyl]-cyclohexyl}-2,6-difluoro-benzamide] |  | 86 nM |  | 74% | 
23 | COc1ccc(CN(C(C)=O)C2CCC(C(c3ccccc3)N(C)C)CC2)cc1 (stereo not drawn) [compound 176, N-(4-((dimethylamino)(phenyl)methyl)cyclohexyl)-N-(4-methoxybenzyl)-acetamide] |  | 19 nM |  | 86% | 
24 | CN(C)C(c1ccc(Cl)cc1)C1CCC(O)(Cc2ccc(F)cc2)CC1 (stereo not drawn) [compound 172, 4-[(4-chloro-phenyl)-dimethylamino-methyl]-1-(4-fluoro-benzyl)-cyclohexanol] |  |  |  |  | 77%
25 | CN(C)C(c1cccc(F)c1)C1CCC(CCNC(=O)c2ccccc2F)CC1 (stereo not drawn) [compound 411, N-(2-{4-[dimethylamino-(3-fluoro-phenyl)-methyl]-cyclohexyl}-ethyl)-2-fluoro-benzamide] |  | 11 nM |  | 99% | 
26 | CN(C)C(c1cccs1)C1CCC(NC(=O)c2ccc(F)c(C(F)(F)F)c2)CC1 (stereo not drawn) [compound 192, N-[4-(dimethylamino-thiophen-2-yl-methyl)-cyclohexyl]-4-fluoro-3-trifluoromethyl-benzamide] |  | 18 nM |  | 98% | 
27 | CN(C)C(c1ccccc1)C1CCC(NC(=O)c2cccc([N+](=O)[O-])c2)CC1 (stereo not drawn) [compound 275, N-[4-(dimethylamino-phenyl-methyl)-cyclohexyl]-3-nitro-benzamide] |  | 100 nM |  | 74% | 
28 | CCn1nc(C)c(Br)c1C(=O)NCC1CCC(C(c2ccccc2)N(C)C)CC1 (stereo not drawn) [compound 390, 4-bromo-2-ethyl-5-methyl-2H-pyrazole-3-carboxylic acid [4-(dimethylamino-phenyl-methyl)-cyclohexylmethyl]-amide] |  |  |  | 81% | 
29 | CN(C)C(c1cccs1)C1CCC(NC(=O)CC(C)(C)C)CC1 (stereo not drawn) [compound 200, N-[4-(dimethylamino-thiophen-2-yl-methyl)-cyclohexyl]-3,3-dimethyl-butyramide] |  | 29 nM |  | 94% | 
30 | CN(C)C(c1ccc(F)cc1)C1CCC(CCNC(=O)c2ccc3ccccc3c2)CC1 (stereo not drawn) [compound 442, naphthalene-2-carboxylic acid (2-{4-[dimethylamino-(4-fluoro-phenyl)-methyl]-cyclohexyl}-ethyl)-amide] |  | 110 nM |  | 86% | 
31 | COc1cccc(CC(=O)NCC2CCC(C(c3ccc(Cl)cc3)N(C)C)CC2)c1 (stereo not drawn) [compound 320, N-{4-[(4-chloro-phenyl)-dimethylamino-methyl]-cyclohexylmethyl}-2-(3-methoxy-phenyl)-acetamide] |  | 28 nM |  | 95% | 
32 | CN(C)C(c1ccccc1)C1CCC(CCNC(=O)Cc2ccccc2)CC1 (stereo not drawn) [compound 451, N-{2-[4-(dimethylamino-phenyl-methyl)-cyclohexyl]-ethyl}-2-phenyl-acetamide] |  | 24 nM |  | 92% | 
33 | CN(C)C(c1cccs1)C1CCC(NC(=O)c2cccs2)CC1 (stereo not drawn) [compound 193, thiophene-2-carboxylic acid [4-(dimethylamino-thiophen-2-yl-methyl)-cyclohexyl]-amide] |  | 23 nM |  | 96% | 
34 | CN(C)C(c1ccccc1)C1CCC(CNC(=O)c2cccnc2Oc2ccc(Cl)cc2)CC1 (single isomer, unassigned) [compound 360, 2-(4-chloro-phenoxy)-N-[4-(dimethylamino-phenyl-methyl)-cyclohexylmethyl]-nicotinamide] |  | 35 nM |  | 86% | 
35 | CN(C)C(c1ccccc1)C1CCC(NC(=O)c2cc(F)cc(C(F)(F)F)c2)CC1 (stereo not drawn) [compound 190, N-[4-(dimethylamino-phenyl-methyl)-cyclohexyl]-3-fluoro-5-trifluoromethyl-benzamide] |  | 25 nM |  | 99% | 
36 | CN(C)C(c1ccccc1)C1CCC(NC(=O)c2cccc(Br)c2)CC1 (stereo not drawn) [compound 197, 3-bromo-N-[4-(dimethylamino-phenyl-methyl)-cyclohexyl]-benzamide] |  | 16 nM |  | 96% | 
